Reference: US20140011755A1, “Cardiac Glycosides for Treating Autoimmune Disease” (Department of Veterans Affairs, priority 2010, published 2014)
Entries after “also recorded” stand apart in the source; their conditions may differ. Like-named read-outs stand apart in the source and are kept apart here.

How the values were obtained:
[1] = Serum concentration obtained with experimental dosing regimen, mouse; assay type: in vivo; details: 0.3 mg/kg per diem, i.p., experimentally determined
Procedure: Dosing regimens in humans vary according to the cardiac glycoside and constitution thereof. Table 3 depicts representative dosing regimens reported in the literature compared to experimental regiments used in mice that are representative of human dosing. Successful dosing detailed in this application includes but is not limited to 0.03-0.4 mg/kg., or from 0.001 to 5 mg/kg.

[2] = system: collagen-induced arthritis (CIA); assay type: in vivo, DBA1/J mice
nuclear phospho-p65 = test: Western blot of nuclear phospho-p65 in CD40L-stimulated CIA B cells; assay type: cell-based, mice; details: 33 nM for 1 h, 50 ng/mL CD40L
Procedure: FIG. 8. […] Values represent mean light units produced. Error bars represent SEM, and statistical significance was determined by unpaired T-test. Single and double asterisks represent P-values of 0.01 or 0.001, respectively. […] Samples were harvested at designated time points and were fractionated into nuclear and cytoplasmic lysates (Pierce). Lysates were quantified using BCA (Pierce), and were equally loaded according to total protein. Membranes were probed for levels of nuclear phospho-p65 (ReIA), phospho-ReIB, and histone (histone served as loading control and fractionation method control) and cytoplasmic degradation of IκBα (beta-tubulin served as loading control and fractionation method control).
HeLa cells were co-transfected with the reporter pNFκB-luc and control vector pTAL (Renilla) for 18 h prior to incubation with 0-500 nM cardiac glycoside for 6 h. Cells are stimulated with 50 ng/mL TNF. […] FIG. 8 B).

CD40 = target: T1, CD40 (Mus musculus, UniProt P27512); test: CD40-mediated B cell proliferation (anti-CD40, CD40L); assay type: cell-based, mice; details: pre-treatment of B cells
T1 construct: Peritoneal and bone marrow-derived macrophages were isolated from CIA mice; endogenous in cells; host or cells: peritoneal and bone marrow-derived macrophages from CIA mice
T1 sequence (P27512 20-289): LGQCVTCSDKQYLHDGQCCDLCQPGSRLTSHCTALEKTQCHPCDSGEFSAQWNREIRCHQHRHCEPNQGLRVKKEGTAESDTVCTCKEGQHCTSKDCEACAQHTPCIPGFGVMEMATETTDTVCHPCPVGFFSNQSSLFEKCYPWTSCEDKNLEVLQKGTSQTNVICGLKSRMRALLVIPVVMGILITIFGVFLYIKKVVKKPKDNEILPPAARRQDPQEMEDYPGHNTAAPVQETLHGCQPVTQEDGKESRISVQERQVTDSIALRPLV
Procedure: Activity was monitored by ^3H-thymidine incorporation as a read-out for proliferation. […] Cell type(s) in the splenocyte population responsive to therapeutic concentrations of cardiac glycoside were determined by identifying the population of cells that responded to a dose-dependent decrease in activity in the presence of stimulant, defined as ligand(s) binding to cognate receptor(s). Activity was analyzed by: ^3H-thymidine or BrdU incorporation to monitor proliferation or by ELISA to monitor cytokine production. Splenic T lymphocytes were isolated by negative selection (MACS, Miltinyi Biotec) and are stimulated with PMA, ConA or through the TCR with anti-CD3/anti-CD28 Dynabeads (Invitrogen) and collagen II (all non-TNFR receptors/pathways). […] Peritoneal and bone marrow-derived macrophages were isolated from CIA mice in the presence of M-CSF growth factor and were stimulated with TNF and CD40 ligand (CD40L). […] Splenic B lymphocytes were isolated by negative selection (MACS, Miltinyi Biotec) and were stimulated with BAFF (BLyS), CD40L or through the BCR with anti-IgM u-chain specific antibodies.

MRL-Ipr splenic B cells = test: ANA production by MRL-Ipr splenic B cells in vitro; assay type: cell-based, mice; details: 2×10^5 vehicle-treated MRL-Ipr splenic B cells, 33 nM
[3] = system: naïve CD4+ T cells, Th17 differentiation; test: Th17 T cell differentiation in co-culture with pre-treated CIA B cells; assay type: cell-based, mice; details: B cells treated 33 nM for 30 minutes, washed, co-culture 72 hr in Th17 differentiation media
Procedure: FIG. 24. […] At endpoint, IL-17 cytokine levels were quantified by ELISA (R&D Systems). (B) IL-10 cytokine production was also assessed in each sample by ELISA (eBiosciences). Data represent the average of triplicates and error bars represent the SEM. Statistical significance was determined by the students t-test.
It is known that B cells can regulate T cell differentiation and in many states of autoimmune disease, an imbalance of Th1, Th2, and Th17 T cell populations exist. […] We performed studies to determine the regulatory effector function of B cells pre-treated with cardiac glycoside on T cell differentiation. B cells blocked naïve CD4^+ T cell differentiation into Th17 cells when cardiac glycoside was administered to B cells 30 minutes prior to co-culture with T cells (FIG. 24 A). Additionally, the pre-treatment of B cells with cardiac glycoside inhibited Th17 differentiation in a STAT3-dependent manner (FIG. 25A). […] Cardiac glycosides can be administered to patients to induce IL-10 expressing B cells and to modulate T cell differentiation and increase numbers of Tregs which reduce autoimmune disease progression.

regulatory T cells = test: FACS of regulatory T cells in splenocytes of treated CIA mice; assay type: in vivo, DBA1/J mice; details: 0.3 mg/kg treated CIA mice, 4 mice per group
Procedure: FIG. 25. […] (A) Representative data from mixed lymphocyte studies. […] B cells were washed, replated in complete RPMI supplemented with BAFF (1 ng/mL), anti-CD3 antibody (4 μg/mL) and were added to 5×10^5 naïve CD4^+ T cells purified by MACS. Cells were incubated for 72 hr prior to harvest. IL-6, IL-10, TGFβ and IL-17 cytokine levels were measured by ELISA (R&D Systems, Peprotech, and eBiosciences). Data represent the average absorbance (A450) of triplicates and error bars represent the SEM. […] Cells were fixed in 4% paraformaldehyde for 15 minutes, washed twice with PBS and blocked with FACS buffer. Cells were stained for regulatory T cells using anti-TCRβ, anti-CD4, anti-CD25 and anti-FoxP3 antibodies (Cell Signaling Technologies, R&D Systems, AbCam). FACS was performed on the FACS Aria (Becton-Dickenson). Data represent the average population in 500,000 cells from 4 mice per treatment group. Error bars represent the SEM.
It is known that B cells can regulate T cell differentiation and in many states of autoimmune disease, an imbalance of Th1, Th2, and Th17 T cell populations exist. […] We performed studies to determine the regulatory effector function of B cells pre-treated with cardiac glycoside on T cell differentiation. […]

[4] = CHCI3/16% aqueous methanol (MeOH); cited from earlier work
[5] = Human, oral; Smith, TW (1970); cited from earlier work
[6] = daily i.p. from Mean Visual Score of 2, digitoxin 0.3 mg/kg, proscillaridin […], Mann-Whitney

**Q.** Which results are given for `C[C@H]1O[C@@H](O[C@H]2[C@@H](O)C[C@H](O[C@H]3[C@@H](O)C[C@H](O[C@H]4CC[C@@]5(C)[C@H](CC[C@@H]6[C@@H]5CC[C@]5(C)[C@@H](C7=CC(=O)OC7)CC[C@]65O)C4)O[C@@H]3C)O[C@@H]2C)C[C@H](O)[C@@H]1O` [Digitoxin, digitoxin]?
**A.** Serum conc. [1]: 19 ng/mL; disease and inflammation (clinical score, paw thickness), dosing every three days i.p. ([2]; 0.9 mg/kg digitoxin or 0.6 mg/kg ouabain, i.p., days −3, 0, 3, 6, 9, 12 after boost): significantly less disease and inflammation; onset of collagen arthritis, dosing every three days sublingual ([2]; 0.9 mg/kg digitoxin or 0.6 mg/kg ouabain, sublingual, days −3, 0, 3, 6, 9, 12 after boost): significantly inhibited the onset of collagen arthritis; also recorded: effective in preventing; Mean Paw Thickness, treatment of established arthritis [2, 6]: statistically significant reductions; Mean Visual Score, treatment of established arthritis [2, 6]: statistically significant reductions; development of CIA (Mean Visual Arthritis Score, Mean Paw Thickness), prevention study ([2]; daily i.p. from the day prior to induction, digitoxin 0.3 mg/kg, ouabain 0.03 mg/kg, proscillaridin […]): prevented the development of CIA; average clinical arthritis scores compared to vehicle, prevention study ([2]; mouse, in vivo): significantly reduced; prevention and treatment of collagen-induced arthritis (CIA) ([2]; murine model for rheumatoid arthritis, summary statement): potently prevent and treat; amount of nuclear phospho-p65 following CD40L stimulation (nuclear phospho-p65): significantly reduced; CD40L-mediated B cell proliferation (CD40): inhibited CD40L-mediated proliferation; anti-CD40 mediated B cell proliferation (CD40): prevented anti-CD40 mediated B cell proliferation; ANA production in vitro at 72 hours (MRL-Ipr splenic B cells): blockade of autoantibody production; Th17 cell differentiation (IL-17 by ELISA) [3]: down-regulates Th17 cell differentiation; induction of regulatory T cells in vivo (regulatory T cells): induce regulatory T cells; Partition Coefficient [4]: 96.5; Serum conc. [5]: 17 ng/mL
